Assay results as given in patent US20130217702A1 (Richter Gedeon Nyrt., priority 2010, published 2013).

Assays:
[1] = biological target: T1, human recombinant bradykinin B1 receptor (Homo sapiens, UniProt P46663); assay: Human recombinant bradykinin B1 receptor competitive radioligand binding; conditions: hB1 expressed in CHO cells, [3H]-[Des-Arg10] Kallidin radioligand; read-out: B1 binding
T1 construct: host or cells: CHO cells, clone hB1-A5
T1 sequence (P46663 1-353): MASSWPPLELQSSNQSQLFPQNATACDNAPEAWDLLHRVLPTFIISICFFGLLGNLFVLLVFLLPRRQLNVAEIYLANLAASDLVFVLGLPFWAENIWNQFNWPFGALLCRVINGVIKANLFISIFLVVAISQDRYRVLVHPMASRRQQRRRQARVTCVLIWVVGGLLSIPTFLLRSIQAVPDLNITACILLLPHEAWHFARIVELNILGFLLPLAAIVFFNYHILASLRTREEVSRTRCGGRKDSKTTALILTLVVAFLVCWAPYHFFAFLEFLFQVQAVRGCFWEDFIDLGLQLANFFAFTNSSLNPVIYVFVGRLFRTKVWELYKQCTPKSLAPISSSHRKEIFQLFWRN
Procedure: Assessment of Ligand Binding Affinity to B1 and B2 Receptors In Vitro by Competitive Radioligand Binding Assay
Binding assays were carried out on human recombinant bradykinin) receptors (expressed in CHO cells, hB1-A5) according to the Euroscreen Technical Data Sheet (Cat.No.:ES-091). 20 μg protein/tube was incubated with [3,4-prolyl-3,4-^3H(N)]-[Des-Arg^10] Kallidin as radioligand. Non specific binding was determined in the presence of 10 μM Lys-des-Arg^9-Bradykinin. The final incubation volume was 250 μl. Samples were incubated for 15 min. at 25° C. then were rapidly vacuum filtered through GF/B filters presoaked for at least 1 h in 0.5% PEI. Radioactivity was determined by liquid scintillation spectroscopy.
The ligand displacement by the compounds was determined using a minimum of seven concentrations in triplicate, and experiments were repeated at least two times. The specific radioligand binding is defined as the difference between total binding and the non-specific binding determined in the presence of an excess of unlabelled ligand. Results are expressed as a percent inhibition of specific binding obtained in the presence of RGH-478 or reference drugs. IC50 values (i.e. concentration of compound giving 50% inhibition of specific binding) were calculated from concentration-displacement curves by sigmoidal fitting using GraphPad Prism Software 4.0. Ki values (i.e. inhibition constants) were calculated using the Cheng-Prusoff equation. KD was determined from the Scatchard plot. (Editor-in-chief: Enna, S. J. and Williams, M. Current protocols in pharmacology vol. 1. John Wiley & sons Inc., 1998)

[2] = biological target: T2, recombinant human B1 receptors (Homo sapiens, UniProt P46663); assay: Functional assay: antagonist potency by cytosolic calcium measurement (plate reader fluorimeter) in CHO-B1 cells, agonist LysDABK; type: cell-based; conditions: CHO-B1 cells, inhibition of LysDABK (EC80)-evoked [Ca2+]i elevation; read-out: B1 func.
T2 construct: host or cells: CHO (CHO-B1)
T2 sequence (P46663 1-353): T1 sequence (P46663 1-353)
Procedure: Assessment of Antagonist Potency at B1 Receptors In Vitro by Measurement of Cytosolic Calcium Ion Concentration with a Plate Reader Fluorimeter in Cells Expressing Recombinant Human B1 Receptors
Chinese hamster ovary (CHO) cells stably expressing recombinant human B1 (CHO-B1, Euroscreen) receptors were cultured in Dulbecco's Modified Eagle's Medium (DMEM) containing 10% Fetal Calf Serum (FCS), 100 U/ml penicillin, 0.1 mg/ml streptomycin, 0.25 μg/ml amphotericin B, 1% Minimum Essential Medium Eagle (MEM), non essential amino acid solution, 600 μg/ml G418. Cells were kept at 37° C. in a humidified incubator in an atmosphere of 5% CO2/95% air and were passaged 1:4 three times a week. Cells were plated at 1.5−2.5×10^4 cell/well on standard 96-well microplates, measurements of cytosolic calcium ion concentration ([Ca^2+]i) were carried out 1-2 days after cell plating.
Measurements of [Ca^2+]i were carried out on CHO-B1 cells stably expressing human B1 receptors, respectively. Cells were grown in standard 96-well microplates and before the measurement were loaded with a fluorescent Ca^2+-sensitive dye, fluo-4/AM (2 μM): after removing the culture medium the dye was added to the cells (dissolved in assay buffer: 145 mM NaCl, 5 mM KCl, 2 mM MgCl2, 2 mM CaCl2, 10 mM HEPES, 20 mM D-glucose, 2 mM probenecid, 100 μl/well) and cells were incubated at 37° C. in a humidified incubator in an atmosphere of 5% CO2/95% air for 40-120 min. To stop dye loading cells were washed twice with assay buffer. After washing, various concentrations of the test compounds (diluted in extracellular medium from a DMSO stock solution, final DMSO concentration was <0.1%) or buffer were added to each well depending on the experimental setup. After incubation at 37° C. for 20-25 min. baseline and agonist-evoked changes of [Ca^2+]; were measured column by column with a plate reader fluorimeter (Fluoroskan Ascent, Labsystems). Excitation and detection of emission was carried out from the bottom of the plate. Filters used for Fluo-4: excitation filter 485 nm, emission filter 538 nm. The whole measurement process was performed at 37° C. and was controlled by custom software. Inhibitory potency of the test compounds was assessed by measuring the reduction in the agonist-evoked [Ca^2+]i-elevation in the presence of different concentrations of the compounds. The agonist was LysDABK for CHO-B1 cells. Agonist was applied at an EC80 concentration; the EC80-values were derived from daily determined dose-response curves. Fluorescence data were expressed as ΔF/F (fluorescence change normalized to baseline). All treatments on a single plate were measured in multiple wells. Data from all wells with the same treatment were averaged and the average values were used for analysis. Inhibitory potency of a compound at a single concentration point was expressed as percent inhibition of the control agonist response. Sigmoidal concentration-inhibition curves were fitted to the data (derived from at least three independent experiments) and IC50-values were determined as the concentration that produces half of the maximal inhibition caused by the compound.

Cn1nnc(-c2c(Cl)c3ccccc3n2-c2ccc(CNC(=O)C3(NC(=O)C(F)(F)F)CC3)cc2)n1 [Example 1, 1-(2,2,2-Trifluoro-acetylamino)-cyclopropanecarboxylic acid 4-[3-chloro-2-(2-methyl-2H-tetrazol-5-yl)-indol-1-yl]-benzylamide]
Ki [1]: < 20 nM
IC50 [2]: < 20 nM

COc1cc(C(=O)NC2(C(=O)NCc3ccc(-n4c(-c5nnn(C)n5)c(Cl)c5ccccc54)cc3)CC2)on1 [Example 2, 3-Methoxy-isoxazole-5-carboxylic acid (1-{4-[3-chloro-2-(2-methyl-2H-tetrazol-5-yl)-indol-1-yl]-benzylcarbamoyl}-cyclopropyl)-amide]
Ki [1]: < 20 nM
IC50 [2]: < 20 nM

COc1cc(C(=O)NC2(C(=O)NCc3ccc(-n4c(-c5nnn(C)n5)cc5ccccc54)cc3)CC2)on1 [Example 3, 3-Methoxy-isoxazole-5-carboxylic acid (1-{4-[2-(2-methyl-2H-tetrazol-5-yl)-indol-1-yl]-benzylcarbamoyl}-cyclopropyl)-amide]
Ki [1]: < 20 nM
IC50 [2]: < 20 nM

Cn1nnc(-c2c(Cl)c3ccccc3n2-c2ccc(CNC(=O)C3(NC(=O)C(F)(F)F)CC3)c(F)c2)n1 [Example 4, 1-(2,2,2-Trifluoro-acetylamino)-cyclopropanecarboxylic acid 4-[3-chloro-2-(2-methyl-2H-tetrazol-5-yl)-indol-1-yl]-2-fluorobenzylamide]
Ki [1]: < 20 nM
IC50 [2]: < 20 nM

COc1cc(C(=O)NC2(C(=O)NCc3ccc(-n4c(-c5nnc(C)o5)c(Cl)c5ccccc54)cc3)CC2)on1 [Example 5, 3-Methoxy-N-[1-({4-[3-chloro-2-(5-methyl-1,3,4-oxadiazol-2-yl)-1H-indol-1-yl]benzyl}carbamoyl)cyclopropyl]isoxazole-5-carboxamide]
Ki [1]: < 20 nM
IC50 [2]: < 20 nM

Cc1nnc(-c2c(Cl)c3ccccc3n2-c2ccc(CNC(=O)C3(NC(=O)C(F)(F)F)CC3)cc2)o1 [Example 6, 1-(2,2,2-Trifluoro-acetylamino)-cyclopropanecarboxylic acid 4-[3-chloro-2-(5-methyl-[1,3,4]oxadiazol-2-yl)-indol-1-yl]-benzylamide]
Ki [1]: 20 to 100 nM
IC50 [2]: 20 to 100 nM

COc1cc(C(=O)NC2(C(=O)NCc3ccc(-n4c(-c5nnnn5C)c(Cl)c5ccccc54)cc3)CC2)on1 [Example 7, 3-Methoxy-isoxazole-5-carboxylic acid (1-{4-[3-chloro-2-(1-methyl-1H-tetrazol-5-yl)-indol-1-yl]-benzylcarbamoyl}-cyclopropyl)-amide]
Ki [1]: < 20 nM
IC50 [2]: < 20 nM

Cn1nnnc1-c1c(Cl)c2ccccc2n1-c1ccc(CNC(=O)C2(NC(=O)C(F)(F)F)CC2)cc1 [Example 8, 1-(2,2,2-Trifluoro-acetylamino)-cyclopropanecarboxylic acid 4-[3-chloro-2-(1-methyl-1H-tetrazol-5-yl)-indol-1-yl]-benzylamide]
Ki [1]: < 20 nM
IC50 [2]: < 20 nM

COc1cc(C(=O)NC2(C(=O)NCc3ccc(-n4c(-c5noc(C)n5)c(Cl)c5ccccc54)cc3)CC2)on1 [Example 9, 3-Methoxy-isoxazole-5-carboxylic acid (1-{4-[3-chloro-2-(5-methyl-[1,2,4]oxadiazol-3-yl)-indol-1-yl]-benzylcarbamoyl}-cyclopropyl)-amide]
Ki [1]: < 20 nM
IC50 [2]: < 20 nM

COC(=O)c1c(Cl)c2ccccc2n1-c1ccc(CNC(=O)C2(NC(=O)C(F)(F)F)CC2)cc1 [Example 10, 3-Chloro-1-[4-({[1-(2,2,2-trifluoro-acetylamino)-cyclopropanecarbonyl]-amino}-methyl)-phenyl]-1H-indole-2-carboxylic acid methyl ester]
Ki [1]: < 20 nM
IC50 [2]: < 20 nM

COC(=O)c1c(Cl)c2ccccc2n1-c1ccc(CNC(=O)C2(NC(=O)c3cc(OC)no3)CC2)cc1 [Example 11, 3-Chloro-1-{4-[({1-[(3-methoxy-isoxazole-5-carbonyl)-amino]-cyclopropane-carbonyl}-amino)-methyl]-phenyl}-1H-indole-2-carboxylic acid methyl ester]
Ki [1]: < 20 nM
IC50 [2]: < 20 nM

Cn1nnc(-c2c(Cl)c3cc(F)ccc3n2-c2ccc(CNC(=O)C3(NC(=O)C(F)(F)F)CC3)cc2)n1 [Example 12, 1-(2,2,2-Trifluoro-acetylamino)-cyclopropanecarboxylic acid 4-[3-chloro-5-fluoro-2-(2-methyl-2H-tetrazol-5-yl)-indol-1-yl]-benzylamide]
Ki [1]: < 20 nM
IC50 [2]: < 20 nM

COc1cc(C(=O)NC2(C(=O)NCc3ccc(-n4c(-c5nnn(C)n5)c(Cl)c5cc(F)ccc54)cc3)CC2)on1 [Example 13, 3-Methoxy-isoxazole-5-carboxylic acid (1-{4-[3-chloro-5-fluoro-2-(2-methyl-2H-tetrazol-5-yl)-indol-1-yl]-benzylcarbamoyl}-cyclopropyl)-amide]
Ki [1]: < 20 nM
IC50 [2]: < 20 nM

COC(=O)c1cc2ccccc2n1-c1ccc(CNC(=O)C2(NC(=O)c3cc(OC)no3)CC2)cc1 [Example 14, 1-{4-[({1-[(3-Methoxy-isoxazole-5-carbonyl)-amino]-cyclopropanecarbonyl}-amino)-methyl]-phenyl}-1H-indole-2-carboxylic acid methyl ester]
Ki [1]: < 20 nM
IC50 [2]: < 20 nM

COc1cc(C(=O)NC2(C(=O)NCc3ccc(-n4c(-c5nnn(C)n5)c(Cl)c5ccccc54)cc3F)CC2)on1 [Example 15, 3-Methoxy-isoxazole-5-carboxylic acid (1-{4-[3-chloro-2-(2-methyl-2H-tetrazol-5-yl)-indol-1-yl]-2-fluorobenzylcarbamoyl}-cyclopropyl)-amide]
Ki [1]: < 20 nM
IC50 [2]: < 20 nM

COc1cc(C(=O)NC2(C(=O)NCc3ccc(-n4c(-c5cnco5)c(Cl)c5ccccc54)cc3)CC2)on1 [Example 16, 3-Methoxy-isoxazole-5-carboxylic acid (1-{4-[3-chloro-2-(1,3-oxazol-5-yl)-indol-1-yl]-benzylcarbamoyl}-cyclopropyl)-amide]
Ki [1]: < 20 nM
IC50 [2]: < 20 nM

Cn1nnc(-c2c(Cl)c3cc(Cl)ccc3n2-c2ccc(CNC(=O)C3(NC(=O)C(F)(F)F)CC3)cc2)n1 [Example 17, 1-(2,2,2-Trifluoro-acetylamino)-cyclopropanecarboxylic acid 4-[3,5-dichloro-2-(2-methyl-2H-tetrazol-5-yl)-indol-1-yl]-benzylamide]
Ki [1]: < 20 nM
IC50 [2]: < 20 nM
